Values joined by “and” are separate entries in the source; they are usually repeats but may differ in a detail not shown here. Identical values can stand only once.
Experiments:
[1] = target: T1, AURKA (Homo sapiens, UniProt O14965); assay: Liability panel screening by DSF: AURKA; assay type: binding; settings: read-out: Mean ΔTM AURKA
T1 construct: made in house
T1 sequence (O14965 1-403): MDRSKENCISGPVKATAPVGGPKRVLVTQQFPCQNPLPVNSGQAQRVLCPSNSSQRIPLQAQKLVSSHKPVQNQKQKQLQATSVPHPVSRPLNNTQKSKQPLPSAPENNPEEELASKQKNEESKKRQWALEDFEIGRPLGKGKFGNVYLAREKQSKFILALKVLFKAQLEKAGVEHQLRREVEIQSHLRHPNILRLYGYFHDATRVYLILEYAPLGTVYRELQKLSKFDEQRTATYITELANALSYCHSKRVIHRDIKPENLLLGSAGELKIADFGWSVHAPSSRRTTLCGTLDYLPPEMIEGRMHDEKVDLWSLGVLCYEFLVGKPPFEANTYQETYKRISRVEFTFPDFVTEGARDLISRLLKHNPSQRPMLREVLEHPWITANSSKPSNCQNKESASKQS
Procedure, shortened: (§1)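 Recombinant protein at 2 µM in 10 mM HEPES pH 7.5 with 500 mM NaCl was mixed with SYPRO Orange (1:1000) and heated at 3 °C/min up to 85 °C. Tm was taken as the Boltzmann-fit inflection point. Shifts are ∆Tm in K from technical duplicates.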

[2] = system: HEK293T cells; assay: Cytotoxicity: apoptosis induction (caspase-3/7 DEVD fluorogenic DNA dye); settings: 1 µM; HEK293T, 24 h; apoptotic cell count normalized to 0.1% DMSO; single replicates
Procedure: Cells were incubated with the test compounds at the indicated concentrations solubilized with 0.1% DMSO for 24 h. Growth-rate was determined based on the change in confluence over 24 h normalized to the change in confluence of cells treated with the 0.1% DMSO control (n = 10). Metabolic activity was determined with a water-soluble tetrazolium-8 (WST-8) assay (n = 8) after 24 h treatment. Apoptotic cells were detected with a fluorogenic DNA dye coupled to the caspase-3/7 recognition sequence (DEVD) after 24 h treatment and the apoptotic cell count was normalized to 0.1% DMSO treated cells (n = 6).
HEK293T cells (German Collection of Microorganisms and Cell Culture GmbH, DSMZ; #ACC305) were cultured in DMEM high glucose, supplemented with 10% fetal calf serum (FCS), sodium pyruvate (1 mM), penicillin (100 µ/mL) and streptomycin (100 µg/mL) at 37 °C and 5% (v/v) CO2, and seeded in pre-coated (10 µg/mL collagen G solution (Merck KgaA; #L7213) for 30 min at 37 °C) 96-well plates (2 × 10^5 cells per well). After 24 h, the cells were treated with the respective NR3 CG compound candidate at the recommended concentration, bexarotene (100 µM) or doxorubicin (30 µM) as positive controls in DMEM high glucose supplemented with 0.1% FCS, penicillin (100 µ/mL), streptomycin (100 µg/mL) and 0.1% DMSO, or 0.1% DMSO alone as an untreated control. Each sample was prepared in at least four biologically independent replicates. […] Thereafter, the medium was aspirated and the cells were incubated for 3 h with 90 µL DMEM high glucose supplemented with 0.2% FCS, penicillin (100 µ/mL) and streptomycin (100 µg/mL) and additionally containing 10 µL Cell Counting Kit 8 solution (CCK-8; MedChemExpress, Monmouth Junction, New York, USA; #HY-K0301), and absorbance was measured at 1 h, 2 h and 3 h of incubation at 450 nm on a Tecan Spark Cyto to assess metabolic activity of the cells. Before drug administration, after the first medium exchange, 24 h after drug administration, and after fluorescence imaging cell confluence was assessed using the Tecan Spark Cyto, to account for changes in cell confluence due to drug administration and cell handling. Compound effects on cell confluence, apoptosis, metabolic activity and necrosis were normalized to the vehicle control of each biological replicate individually.

[3] = target: T2, BRD4 (Homo sapiens, UniProt O60885); assay: Liability panel screening by DSF: BRD4; assay type: binding; settings: read-out: Mean ΔTM BRD4
T2 construct: This panel comprised ten highly ligandable kinases and bromodomains; made in house
Procedure, shortened: as §1

[4] = target: T3, TRIM24 (Homo sapiens, UniProt O15164); assay: Liability panel screening by DSF: TRIM24; assay type: binding; settings: read-out: Mean ΔTM TRIM24
T3 construct: This panel comprised ten highly ligandable kinases and bromodomains; made in house
T3 sequence (O15164 899-1004 limits assumed): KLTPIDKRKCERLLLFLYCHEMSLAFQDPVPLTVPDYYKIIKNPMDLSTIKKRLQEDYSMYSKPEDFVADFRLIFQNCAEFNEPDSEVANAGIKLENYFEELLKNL
Procedure, shortened: as §1

[5] = target: T4, ABL1 (Homo sapiens, UniProt P00519); assay: Liability panel screening by DSF: ABL1; assay type: binding; settings: read-out: Mean ΔTM ABL1
T4 construct: made in house
Procedure, shortened: as §1

[6] = system: HEK293T cells; assay: Cytotoxicity: necrosis induction (red fluorescent dye for permeable plasma membranes); assay type: cell-based; settings: 1 µM, 24 h, necrotic cell count normalized to 0.1% DMSO, single replicates;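 further: compounds applied in DMEM high glucose with 0.1% FCS and 0.1% DMSO, necrotic HEK293T cells counted by red staining of cells whose plasma membranes had become permeable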
[7] = target: T5, FGFR3 (Homo sapiens, UniProt P22607); assay: Liability panel screening by DSF: FGFR3; assay type: binding; settings: read-out: Mean ΔTM FGFR3
T5 construct: made in house
Procedure, shortened: as §1

[8] = system: NR3C2 (MR); settings: (lit.); ref Supplementary Table 1; read-out: Potency [nM] EC50, NR3C2 (MR); cited from earlier work
[9] = target: T6, CDK2 (Homo sapiens, UniProt P24941); assay: Liability panel screening by DSF: CDK2; assay type: binding; settings: read-out: Mean ΔTM CDK2
T6 construct: made in house
Procedure, shortened: as §1

[10] = system: NF-κB activity in HEK293 NF-κB reporter cells; assay: NF-kB activity assay (GFP reporter, ionomycin/PMA); assay type: cell-based; settings: n=3
Procedure, shortened: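 Reporter readout: GFP-expressing cells normalized to confluence, imaged every 90 min across 24 h after ionomycin (100 ng/mL)/PMA (10 ng/mL) stimulation of HEK293 cells pre-treated 4 h with compound (0.1% DMSO); triplicate independent experiments.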

[11] = system: NR3C1 (GR); settings: (lit.); ref Supplementary Table 1; read-out: Potency [nM] EC50, NR3C1 (GR); cited from earlier work
[12] = system: ATF6 activity in Hela ATF6 reporter cells; assay: Endoplasmic reticulum stress assay (ATF6 Renilla luciferase reporter, tunicamycin); assay type: cell-based; settings: Homo sapiens, HeLa, 1 µM, single replicates n=1 to n=5; read-out: ER stress [rel. ATF6 activity]
Procedure, shortened: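 ER stress was induced by 100 ng/mL tunicamycin added 4 h after compound (0.1% DMSO) to HeLa ATF6 reporter cells. After 18 h more, Renilla luciferase signal was read and expressed relative to DMSO control, n=5 biological replicates.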

[13] = system: HEK293T cells; assay: Cytotoxicity: growth-rate (change in confluence over 24 h); settings: 1 µM, normalized to 0.1% DMSO control, single replicates (n=1...)
[14] = system: NR3C4 (AR); settings: read-out: Potency [nM] EC50, NR3C4 (AR); cited from earlier work
[15] = target: T7, MAPK1 (Homo sapiens, UniProt P28482); assay: Liability panel screening by DSF: MAPK1; assay type: binding; settings: read-out: Mean ΔTM MAPK1
T7 construct: made in house
Procedure, shortened: as §1

[16] = target: T8, CSNK1D (Homo sapiens, UniProt P48730); assay: Liability panel screening by DSF: CSNK1D; assay type: binding; settings: read-out: Mean ΔTM CSNK1D
T8 construct: made in house
Procedure, shortened: as §1

[17] = target: T9, BRPF1 (Homo sapiens, UniProt P55201); assay: Liability panel screening by DSF: BRPF1; assay type: binding; settings: read-out: Mean ΔTM BRPF1
T9 construct: This panel comprised ten highly ligandable kinases and bromodomains; made in house
T9 sequence (P55201 628-732 limits assumed): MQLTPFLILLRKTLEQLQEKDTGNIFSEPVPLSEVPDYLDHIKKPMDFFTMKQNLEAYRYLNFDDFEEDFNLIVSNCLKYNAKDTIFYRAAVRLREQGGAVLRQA
Procedure, shortened: as §1

[18] = system: HEK293T cells; assay: Cytotoxicity: metabolic activity (WST-8 / CCK-8 assay); settings: 1 µM; HEK293T, 24 h; WST-8; normalized to 0.1% DMSO; single replicates
[19] = target: T10, GSK3B (Homo sapiens, UniProt P49841); assay: Liability panel screening by DSF: GSK3B; assay type: binding; settings: read-out: Mean ΔTM GSK3B
T10 construct: made in house

[20] = system: NR3C3 (PR); settings: (lit.); ref Supplementary Table 1; read-out: Potency [nM] EC50, NR3C3 (PR); cited from earlier work

T7 sequence (P28482 whole entry, species assumed): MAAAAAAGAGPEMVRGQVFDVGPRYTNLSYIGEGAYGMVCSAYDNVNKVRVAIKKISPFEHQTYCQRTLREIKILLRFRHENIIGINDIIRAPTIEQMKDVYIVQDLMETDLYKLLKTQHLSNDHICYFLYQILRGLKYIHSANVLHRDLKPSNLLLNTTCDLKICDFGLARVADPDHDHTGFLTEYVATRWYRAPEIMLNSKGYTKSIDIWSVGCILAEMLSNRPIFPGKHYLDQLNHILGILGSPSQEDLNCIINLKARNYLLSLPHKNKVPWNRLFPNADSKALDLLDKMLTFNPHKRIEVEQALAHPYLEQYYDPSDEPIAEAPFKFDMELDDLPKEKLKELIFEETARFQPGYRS
T10 sequence (P49841 whole entry, species assumed): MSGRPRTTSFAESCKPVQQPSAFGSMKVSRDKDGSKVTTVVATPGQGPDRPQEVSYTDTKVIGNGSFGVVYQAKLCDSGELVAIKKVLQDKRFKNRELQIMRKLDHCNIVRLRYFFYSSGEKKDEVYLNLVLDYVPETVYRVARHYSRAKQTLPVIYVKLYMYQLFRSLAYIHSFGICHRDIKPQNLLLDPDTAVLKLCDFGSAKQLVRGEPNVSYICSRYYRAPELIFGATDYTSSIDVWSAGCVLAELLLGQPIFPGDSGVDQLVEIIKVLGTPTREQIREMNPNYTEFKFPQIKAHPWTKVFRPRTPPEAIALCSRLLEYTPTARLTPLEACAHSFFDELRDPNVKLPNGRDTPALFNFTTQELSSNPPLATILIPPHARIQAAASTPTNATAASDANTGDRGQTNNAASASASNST
T5 sequence (P22607 23-806, species assumed): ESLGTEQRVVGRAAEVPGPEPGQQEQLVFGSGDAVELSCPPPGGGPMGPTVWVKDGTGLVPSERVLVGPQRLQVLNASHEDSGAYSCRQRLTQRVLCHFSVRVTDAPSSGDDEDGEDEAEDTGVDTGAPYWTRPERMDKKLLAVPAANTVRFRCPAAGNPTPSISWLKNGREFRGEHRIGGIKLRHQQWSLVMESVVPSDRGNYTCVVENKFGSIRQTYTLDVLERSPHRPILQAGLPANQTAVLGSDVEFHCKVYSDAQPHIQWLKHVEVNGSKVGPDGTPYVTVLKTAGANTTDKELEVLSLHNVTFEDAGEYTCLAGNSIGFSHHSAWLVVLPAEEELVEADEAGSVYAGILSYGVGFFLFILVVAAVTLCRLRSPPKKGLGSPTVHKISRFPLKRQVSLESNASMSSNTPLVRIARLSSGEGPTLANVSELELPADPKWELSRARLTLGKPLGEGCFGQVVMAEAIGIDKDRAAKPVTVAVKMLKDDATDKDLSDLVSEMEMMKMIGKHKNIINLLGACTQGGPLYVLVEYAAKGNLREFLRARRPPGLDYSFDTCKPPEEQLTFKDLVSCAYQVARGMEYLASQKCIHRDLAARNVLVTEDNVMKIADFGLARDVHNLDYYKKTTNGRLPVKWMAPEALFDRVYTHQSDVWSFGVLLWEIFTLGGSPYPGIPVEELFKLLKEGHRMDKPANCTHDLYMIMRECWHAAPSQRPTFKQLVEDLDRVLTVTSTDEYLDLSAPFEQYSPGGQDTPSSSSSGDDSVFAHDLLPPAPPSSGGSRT
T8 sequence (P48730 whole entry, species assumed): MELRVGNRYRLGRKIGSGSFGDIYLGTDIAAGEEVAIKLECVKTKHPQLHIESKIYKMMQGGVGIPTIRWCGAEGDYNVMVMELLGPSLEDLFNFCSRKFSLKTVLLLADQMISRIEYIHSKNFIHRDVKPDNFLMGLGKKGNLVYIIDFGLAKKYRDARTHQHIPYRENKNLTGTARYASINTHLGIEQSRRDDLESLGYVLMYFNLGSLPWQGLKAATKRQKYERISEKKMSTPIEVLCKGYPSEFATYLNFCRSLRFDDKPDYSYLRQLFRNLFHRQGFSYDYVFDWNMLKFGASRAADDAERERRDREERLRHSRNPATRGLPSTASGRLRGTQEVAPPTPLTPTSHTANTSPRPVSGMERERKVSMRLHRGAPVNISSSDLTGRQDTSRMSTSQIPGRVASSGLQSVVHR
T4 sequence (P00519 whole entry, species assumed): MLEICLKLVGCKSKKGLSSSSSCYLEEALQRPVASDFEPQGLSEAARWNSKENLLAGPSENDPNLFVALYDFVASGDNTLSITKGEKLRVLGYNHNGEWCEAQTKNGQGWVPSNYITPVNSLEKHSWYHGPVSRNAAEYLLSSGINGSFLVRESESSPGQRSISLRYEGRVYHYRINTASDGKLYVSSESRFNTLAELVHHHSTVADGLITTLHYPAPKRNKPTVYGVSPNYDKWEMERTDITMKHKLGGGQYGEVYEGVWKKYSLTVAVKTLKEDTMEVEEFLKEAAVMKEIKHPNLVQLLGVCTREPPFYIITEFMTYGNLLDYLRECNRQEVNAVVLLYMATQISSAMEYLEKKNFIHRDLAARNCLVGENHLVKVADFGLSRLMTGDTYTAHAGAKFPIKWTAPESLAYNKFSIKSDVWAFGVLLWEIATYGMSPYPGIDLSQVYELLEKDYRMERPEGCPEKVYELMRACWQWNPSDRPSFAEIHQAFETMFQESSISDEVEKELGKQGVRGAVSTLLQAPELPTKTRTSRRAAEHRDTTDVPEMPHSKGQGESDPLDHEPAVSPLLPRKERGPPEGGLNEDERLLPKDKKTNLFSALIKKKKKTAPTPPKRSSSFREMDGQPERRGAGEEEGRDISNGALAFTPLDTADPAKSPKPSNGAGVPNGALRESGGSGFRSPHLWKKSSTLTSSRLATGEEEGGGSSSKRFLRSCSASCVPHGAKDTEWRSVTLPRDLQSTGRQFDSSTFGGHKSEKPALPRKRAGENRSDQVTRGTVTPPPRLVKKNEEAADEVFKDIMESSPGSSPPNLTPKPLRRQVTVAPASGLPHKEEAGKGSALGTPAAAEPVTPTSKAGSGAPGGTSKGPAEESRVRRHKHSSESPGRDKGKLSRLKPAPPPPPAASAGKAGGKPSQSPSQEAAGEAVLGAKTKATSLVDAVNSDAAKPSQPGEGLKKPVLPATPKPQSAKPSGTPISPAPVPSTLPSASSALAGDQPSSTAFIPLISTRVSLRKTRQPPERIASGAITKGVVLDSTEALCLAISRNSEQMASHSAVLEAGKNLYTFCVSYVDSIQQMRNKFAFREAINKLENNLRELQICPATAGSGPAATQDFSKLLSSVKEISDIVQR

C[C@]1(O)CC[C@H]2[C@@H]3CCC4=CC(=O)CCC4=C3C=C[C@@]21C [Methyltrienolone]
ΔTm at 20 µM [1]: 0.08 °C
Apoptosis induction [AI] [2]: 0.87 and 1.36 and 0.90 and 1.12 and 0.53 and 0.75
ΔTm at 20 µM [3]: -0.94 °C
ΔTm at 20 µM [4]: -0.03 °C
ΔTm at 20 µM [5]: 0.42 °C
Necrosis induction [NI] [6]: 0.85 and 1.01 and 0.97 and 1.35
ΔTm at 20 µM [7]: 0.15 °C
EC50 [8]: 0.5 ± 0.1 nM
ΔTm at 20 µM [9]: -0.06 °C
Mean NFκB response ([10]; 1 µM, 1,5 h): 3531.33 GFP+-cells/confluence ∙ 1000
Mean NFκB response ([10]; 1 µM, 4,5 h): 3781.33 GFP+-cells/confluence ∙ 1000
Mean NFκB response ([10]; 1 µM, 7,5 h): 7660.67 GFP+-cells/confluence ∙ 1000
Mean NFκB response ([10]; 1 µM, 10,5 h): 17176.00 GFP+-cells/confluence ∙ 1000
Mean NFκB response ([10]; 1 µM, 13,5 h): 24525.33 GFP+-cells/confluence ∙ 1000
Mean NFκB response ([10]; 1 µM, 16,6 h): 30685.33 GFP+-cells/confluence ∙ 1000
Mean NFκB response ([10]; 1 µM, 19,5 h): 34386.67 GFP+-cells/confluence ∙ 1000
Mean NFκB response ([10]; 1 µM, 22,5 h): 37650.00 GFP+-cells/confluence ∙ 1000
Mean NFκB response ([10]; 1 µM, 3 h): 3552.67 GFP+-cells/confluence ∙ 1000
Mean NFκB response ([10]; 1 µM, 6 h): 4781.67 GFP+-cells/confluence ∙ 1000
Mean NFκB response ([10]; 1 µM, 9 h): 12656.33 GFP+-cells/confluence ∙ 1000
Mean NFκB response ([10]; 1 µM, 12 h): 21183.67 GFP+-cells/confluence ∙ 1000
Mean NFκB response ([10]; 1 µM, 15 h): 28114.67 GFP+-cells/confluence ∙ 1000
Mean NFκB response ([10]; 1 µM, 18 h): 32970.33 GFP+-cells/confluence ∙ 1000
Mean NFκB response ([10]; 1 µM, 21 h): 36266.67 GFP+-cells/confluence ∙ 1000
Mean NFκB response ([10]; 1 µM, 24 h): 38486.67 GFP+-cells/confluence ∙ 1000
EC50 [11]: 10 ± 4 nM
activity at 1 µM [12]: 100%
Growth rate [GR] [13]: 0.54 and 2.52 and 1.01 and 1.07 and 0.85 and 1.02 and 1.00 and 1.19 and 1.25 and 1.79
EC50 [14]: 0.01 ± 0.01 nM
ΔTm at 20 µM [15]: -0.02 °C
ΔTm at 20 µM [16]: -0.05 °C
ΔTm at 20 µM [17]: -1.21 °C
Metabolic activity [MA] [18]: 0.98 and 1.02 and 0.97 (2×) and 1.07 and 1.05 and 1.13 and 1.10
ΔTm at 20 µM [19]: -0.24 °C
EC50 [20]: 0.5 ± 0.3 nM
